Assay results: ChEMBL document CHEMBL5360614, “Quinoline Thiourea-Based Zinc Ionophores with Antibacterial Activity” (J Med Chem, 2023)
≈ marks a conversion by molar mass, not a printed value. Calls of active or inactive are those of the source. The rule behind the calls is not given here.

Experiments:
Cell membrane = assay: Induction of cell membrane depolarization in Staphylococcus aureus MTCC-96 assessed as increase in fluorescence intensity at 30 uM by DiSC3-5 dye based fluorescence method; format: subcellular; conditions: filed as opener
Staphylococcus aureus [1] = assay: In vivo antibacterial activity against Staphylococcus aureus MTCC-96 infected in Balb/c mouse assessed as bacterial load by measuring CFU in liver at 523.455 microM/Kg, iv for 7 days by CFU assay (Rvb= 719 CFU); format: functional, organism-based; conditions: time 7.0 day
Staphylococcus aureus [2] = assay: In vivo antibacterial activity against Staphylococcus aureus MTCC-96 infected in Balb/c mouse assessed as hepatocyte distribution at 523.455 microM/Kg, iv for 7 days by hematoxylin and eosin staining based microscopic analysis; format: functional, organism-based; conditions: time 7.0 day
Staphylococcus aureus [3] = assay: In vivo antibacterial activity against Staphylococcus aureus MTCC-96 infected in Balb/c mouse assessed as liver central vein with minimum infiltration at 523.455 microM/Kg, iv for 7 days by hematoxylin and eosin staining based microscopic analysis; format: functional, organism-based; conditions: time 7.0 day
Staphylococcus aureus [4] = assay: In vivo antibacterial activity against Staphylococcus aureus MTCC-96 infected in Balb/c mouse assessed as less dilated hepatic artery at 523.455 microM/Kg, iv for 7 days by hematoxylin and eosin staining based microscopic analysis; format: functional, organism-based; conditions: time 7.0 day
Staphylococcus aureus [5] = assay: In vivo antibacterial activity against Staphylococcus aureus MTCC-96 infected in Balb/c mouse assessed as less dilated portal vein in liver at 523.455 microM/Kg, iv for 7 days by hematoxylin and eosin staining based microscopic analysis; format: functional, organism-based; conditions: time 7.0 day
Staphylococcus aureus [6] = assay: (§1) Antibacterial activity against gentamicin-and methicillin-resistant Staphylococcus aureus ATCC 33592 assessed as reduction in bacterial growth incubated for 14 to 16 hrs by microbroth dilution method; format: functional; conditions: time 14-16 hrs
Staphylococcus aureus [7] = assay: Antibacterial activity against Staphylococcus aureus MTCC-96 assessed as reduction in bacterial growth incubated for 14 to 16 hrs by microbroth dilution method; format: functional; conditions: time 14-16 hrs
Escherichia coli = assay: Antibacterial activity against Escherichia coli MTCC 1687 assessed as reduction in bacterial growth incubated for 14 to 16 hrs by microbroth dilution method; format: functional; conditions: time 14-16 hrs
Staphylococcus aureus [8] = assay: Disruption of membrane integrity in Staphylococcus aureus MTCC-96 assessed as increase in fluorescence intensity by PI staining based fluorescence analysis; format: functional, organism-based
Staphylococcus aureus [9] = assay: as §1, with “hrs in presence of 2 uM 1-(2-(1H-benzo[d]imidazol-1-yl)quinolin-8-yl)-3-(3,5-bis(trifluoromethyl)phenyl)thiourea and 50 uM ZnCl2” for “hrs”; format: functional; conditions: time 14-16 hrs
Staphylococcus aureus [10] = assay: as §1, with “hrs in presence of 1 uM 1-(2-(1H-benzo[d]imidazol-1-yl)quinolin-8-yl)-3-(3,5-bis(trifluoromethyl)phenyl)thiourea and 50 uM ZnCl2” for “hrs”; format: functional; conditions: time 14-16 hrs
Staphylococcus aureus [11] = assay: as §1, with “hrs in presence of 1 uM 1-(2-(1H-benzo[d]imidazol-1-yl)quinolin-8-yl)-3-(3,5-bis(trifluoromethyl)phenyl)thiourea” for “hrs”; format: functional; conditions: time 14-16 hrs
Staphylococcus aureus [12] = assay: (§2) Antibacterial activity against gentamicin-and methicillin-resistant Staphylococcus aureus ATCC 33592 assessed as reduction in bacterial growth incubated for 14 to 16 hrs in presence of 100 uM ZnCl2 by microbroth dilution method; format: functional; conditions: time 14-16 hrs
Staphylococcus aureus [13] = assay: Potency index, ratio of compound MIC to compound MIC in presence of 1 uM 1-(2-(1H-benzo[d]imidazol-1-yl)quinolin-8-yl)-3-(3,5-bis(trifluoromethyl)phenyl)thiourea and 200 uM ZnCl2 for antibacterial activity against gentamicin-and methicillin-resistant Staphylococcus aureus ATCC 33592; format: functional
Staphylococcus aureus [14] = assay: as §2, with “1 uM 1-(2-(1H-benzo[d]imidazol-1-yl)quinolin-8-yl)-3-(3,5-bis(trifluoromethyl)phenyl)thiourea and 200” for “100”; format: functional; conditions: time 14-16 hrs
Staphylococcus aureus [15] = assay: as §2, with “of 1 uM 1-(2-(1H-benzo[d]imidazol-1-yl)quinolin-8-yl)-3-(3,5-bis(trifluoromethyl)phenyl)thiourea and” for “of”; format: functional; conditions: time 14-16 hrs
Staphylococcus aureus [16] = assay: Antibacterial activity against gentamicin-and methicillin-resistant Staphylococcus aureus ATCC 33592 assessed as reduction in bacterial growth incubated for 14 to 16 hrs in presence of 200 uM ZnCl2 by microbroth dilution method; format: functional; conditions: time 14-16 hrs

In the case of `CC(C)[C@@H]1NC(=O)[C@H](C)OC(=O)[C@@H](C(C)C)NC(=O)[C@@H](C(C)C)OC(=O)[C@H](C(C)C)NC(=O)[C@H](C)OC(=O)[C@@H](C(C)C)NC(=O)[C@@H](C(C)C)OC(=O)[C@H](C(C)C)NC(=O)[C@H](C)OC(=O)[C@@H](C(C)C)NC(=O)[C@@H](C(C)C)OC1=O`, the Activity (Cell membrane) is reported as “Active”.
In the case of GENTAMICIN, the Activity (Staphylococcus aureus [1]) is reported as 62 CFU, the Activity (Staphylococcus aureus [2]) is reported as “Active” and the Activity (Staphylococcus aureus [3]) is reported as “Active”. The Activity (Staphylococcus aureus [4]) was “Active” and the Activity (Staphylococcus aureus [5]) was “Active”.
For `O=C(O)c1cn(C2CC2)c2cc(N3CCNCC3)c(F)cc2c1=O` [CIPROFLOXACIN], the MIC (Staphylococcus aureus [6]) was 1.5 µM (≈ 0.497 µg/mL), the MIC (Staphylococcus aureus [7]) was 0.45 µM (≈ 0.149 µg/mL) and the MIC (Escherichia coli) was 0.51 µM (≈ 0.169 µg/mL). The Activity (Staphylococcus aureus [8]) was “inactive”.
With `CC1(C)S[C@@H]2[C@H](NC(=O)[C@H](N)c3ccccc3)C(=O)N2[C@H]1C(=O)O` [AMPICILLIN] the MIC (Staphylococcus aureus [9]) was 0.03 µM, the MIC (Staphylococcus aureus [10]) was 2 µM and the MIC (Staphylococcus aureus [11]) was 2.1 µM. It also gave an MIC (Staphylococcus aureus [12]) of 134 µM, a Ratio (Staphylococcus aureus [13]) of 4466 and an MIC (Staphylococcus aureus [6]) of 134 µM (≈ 46.8 µg/mL). It also gave an MIC (Staphylococcus aureus [14]) of 0.03 µM, an MIC (Staphylococcus aureus [15]) of 0.03 µM and an MIC (Staphylococcus aureus [16]) of 134 µM.
